From patent US11293927B2, “Screening methods for PARP modulators” (Ribon Therapeutics, Inc., priority 2018, dated 2022)

Experiments:
[1] = molecular target: T1, PARP16 (Homo sapiens, UniProt Q8N5Y8); assay: In vitro TR-FRET probe displacement assay (Probe C), PARP16; format: binding; conditions: TR-FRET displacement of Probe C, PARP16 residues 5-279
T1 construct: made in house; host or cells: E. coli
T1 sequence (Q8N5Y8 5-279 isoform Q8N5Y8-3): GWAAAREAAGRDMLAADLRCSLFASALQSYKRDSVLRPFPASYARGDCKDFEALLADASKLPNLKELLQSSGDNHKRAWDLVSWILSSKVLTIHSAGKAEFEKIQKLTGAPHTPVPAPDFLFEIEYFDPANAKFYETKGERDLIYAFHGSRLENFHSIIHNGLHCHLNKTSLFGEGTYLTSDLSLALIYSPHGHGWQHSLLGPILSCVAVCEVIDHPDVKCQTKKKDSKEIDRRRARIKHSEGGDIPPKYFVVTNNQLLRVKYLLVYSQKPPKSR
Method: (§1) A portion of PARP16 (residues 5 to 279 of NP_060321.3 (SEQ ID NO: 6), GenBank Accession No. NM_017851) was overexpressed in E. coli cells. An N-terminal fusion tag, […] (SEQ ID NO: 9), was used to purify the protein from cell lysates. The fusion tag was left on the protein for use in the probe displacement assay.
(§2) Displacement of a Probe C binding to monoPARP active sites was measured using a time-resolved fluorescence resonance energy transfer (TR-FRET) assay. 20 nL of a dose response curve of each test compound was spotted in black 384-well polystyrene proxiplates (Perkin Elmer) using a Mosquito (TTP Labtech). Reactions were performed in an 8 μL volume by adding 6 μL of the monoPARP and Probe C in assay buffer (20 mM HEPES pH=8, 100 mM NaCl, 0.1% bovine serum albumin, 2 mM DTT and 0.002% Tween20), incubating with test compound at 25° C. for 30 min, then adding 2 μL of ULight-anti 6×His and LANCE Eu-W 1024 labeled streptavidin (Perkin Elmer). Binding reactions were equilibrated at 25° C. for an additional 30 min, then read on an Envision platereader equipped with a LANCE/DELFIA top mirror (Perkin Elmer) using excitation of 320 nm and emission of 615 nm and […] with a 90 μs delay. The ratio of the 665/615 nm emission were calculated for each well to determine the amount of complex of monoPARP and Probe C in each well. […]

[2] = molecular target: T2, PARP14 (Homo sapiens, UniProt Q460N5); assay: In vitro TR-FRET probe displacement assay (Probe C), PARP14; format: binding; design: made in house; host or cells: E. coli; conditions: TR-FRET displacement of Probe C, PARP14 residues 1611-1801
T2 sequence (Q460N5 1611-1801): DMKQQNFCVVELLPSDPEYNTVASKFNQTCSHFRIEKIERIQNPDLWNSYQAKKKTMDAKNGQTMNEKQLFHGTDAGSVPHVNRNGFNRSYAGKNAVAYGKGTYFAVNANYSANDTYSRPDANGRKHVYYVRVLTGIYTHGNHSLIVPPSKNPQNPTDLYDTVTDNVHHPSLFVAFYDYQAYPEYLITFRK
Method: as §1, with “PARP14” for “PARP16”, “1611” for “5”, “1801” for “279”, “NP_060024.2” for “NP_060321.3”, “4),” for “6),”, “NM_017554)” for “NM_017851)”
as §2

- IC50 [1]: 100 nM
- IC50 [2]: 50 nM
SMILES: O=c1[nH]ncc(N2Cc3ccc(OC4CCNCC4)cc3C2)c1C(F)(F)F [Compound A, 5-[5-(Piperidin-4-yloxy)-2,3-dihydro-1H-isoindol-2-yl]-4-(trifluoromethyl)-2,3-dihydropyridazin-3-one]
